Legend:
Test in all cases: KINOMEscan competition binding
Conditions in all cases: compound 10.0 µM
MAK (human) = MAK (human) (UniProt P20794)
STK17A (human) = STK17A (human) (UniProt Q9UEE5)
CSNK1A1 (human) = CSNK1A1 (human) (UniProt P48729)
PRKCQ (human) = PRKCQ (human) (UniProt Q04759)
CAMK1D (human) = CAMK1D (human) (UniProt Q8IU85)
SRPK2 (human) = SRPK2 (human) (UniProt P78362)
GSG2 (human) = GSG2 (human) (UniProt Q8TF76)
CDK16 (human) = CDK16 (human) (UniProt Q00536)
[1] = target: TYK2 JH1 catalytic (human) (UniProt P29597)
LRRK2 (human) = LRRK2 (human) (UniProt Q5S007)
MAP2K2 (human) = MAP2K2 (human) (UniProt P36507)
MAP3K11 (human) = MAP3K11 (human) (UniProt Q16584)
BRAF (human) = BRAF (human) (UniProt P15056)
MYO3A (human) = MYO3A (human) (UniProt Q8NEV4)
CDK2 (human) = CDK2 (human) (UniProt P24941)
SGK110 (human) = SGK110 (human) (UniProt P0C264)
PRKCI (human) = PRKCI (human) (UniProt P41743)
VRK2 (human) = VRK2 (human) (UniProt Q86Y07)
CDC42BPA (human) = CDC42BPA (human) (UniProt Q5VT25)
FES (human) = FES (human) (UniProt P07332)
[2] = target: JAK1 JH1 catalytic (human) (UniProt P23458)
DAPK1 (human) = DAPK1 (human) (UniProt P53355)
[3] = target: JAK1 JH2 pseudokinase (human) (UniProt P23458)
CSNK2A1 (human) = CSNK2A1 (human) (UniProt P68400)
RPS6KA5 KD2 (human) = RPS6KA5 KD2 (human) (UniProt O75582)
GRK1 (human) = GRK1 (human) (UniProt Q15835)
MAP4K2 (human) = MAP4K2 (human) (UniProt Q12851)
PKN3 (M.tuberculosis) = PKN3 (M.tuberculosis) (UniProt Q6P5Z2)
EPHA8 (human) = EPHA8 (human) (UniProt P29322)
NEK6 (human) = NEK6 (human) (UniProt Q9HC98)
CAMK2G (human) = CAMK2G (human) (UniProt Q13555)
WNK3 (human) = WNK3 (human) (UniProt Q9BYP7)
MAP3K13 (human) = MAP3K13 (human) (UniProt O43283)
RPS6KA3 KD2 (human) = RPS6KA3 KD2 (human) (UniProt P51812)
EIF2AK2 (human) = EIF2AK2 (human) (UniProt P19525)
TSSK1B (human) = TSSK1B (human) (UniProt Q9BXA7)
[4] = tested on: MET (human), P08581 [M1250T]
CSK (human) = CSK (human) (UniProt P41240)
LATS2 (human) = LATS2 (human) (UniProt Q9NRM7)
Sequence of LATS2 (human) (Q9NRM7 whole entry, looked up): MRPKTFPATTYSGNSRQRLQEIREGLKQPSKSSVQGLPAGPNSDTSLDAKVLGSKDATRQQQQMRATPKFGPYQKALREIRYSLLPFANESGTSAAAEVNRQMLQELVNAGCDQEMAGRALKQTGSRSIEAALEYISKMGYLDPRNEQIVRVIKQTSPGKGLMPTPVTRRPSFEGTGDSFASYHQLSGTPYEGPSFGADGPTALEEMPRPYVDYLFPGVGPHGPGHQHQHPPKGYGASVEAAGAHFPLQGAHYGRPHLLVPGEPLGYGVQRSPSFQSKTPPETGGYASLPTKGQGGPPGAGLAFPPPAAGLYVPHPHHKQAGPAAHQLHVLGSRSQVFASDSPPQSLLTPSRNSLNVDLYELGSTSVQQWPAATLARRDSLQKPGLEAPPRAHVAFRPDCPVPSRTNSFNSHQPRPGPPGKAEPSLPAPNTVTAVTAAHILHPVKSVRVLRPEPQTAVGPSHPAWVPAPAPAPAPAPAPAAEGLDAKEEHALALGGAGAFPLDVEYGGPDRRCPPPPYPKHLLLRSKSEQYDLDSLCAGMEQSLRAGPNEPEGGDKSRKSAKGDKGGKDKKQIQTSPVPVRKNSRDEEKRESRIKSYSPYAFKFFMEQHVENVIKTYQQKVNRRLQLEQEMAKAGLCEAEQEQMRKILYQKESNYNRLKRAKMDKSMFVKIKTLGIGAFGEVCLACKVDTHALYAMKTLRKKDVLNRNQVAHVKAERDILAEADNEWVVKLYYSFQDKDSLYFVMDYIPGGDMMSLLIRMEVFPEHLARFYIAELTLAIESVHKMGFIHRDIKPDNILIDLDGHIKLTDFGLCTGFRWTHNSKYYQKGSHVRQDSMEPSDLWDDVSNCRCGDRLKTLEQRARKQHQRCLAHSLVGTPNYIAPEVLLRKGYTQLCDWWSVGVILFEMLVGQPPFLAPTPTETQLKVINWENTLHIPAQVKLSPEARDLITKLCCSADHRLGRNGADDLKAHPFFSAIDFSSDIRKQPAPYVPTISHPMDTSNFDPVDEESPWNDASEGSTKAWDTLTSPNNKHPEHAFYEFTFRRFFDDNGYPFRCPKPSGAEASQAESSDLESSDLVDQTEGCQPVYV

Sequence of GSG2 (human) (Q8TF76 whole entry, looked up): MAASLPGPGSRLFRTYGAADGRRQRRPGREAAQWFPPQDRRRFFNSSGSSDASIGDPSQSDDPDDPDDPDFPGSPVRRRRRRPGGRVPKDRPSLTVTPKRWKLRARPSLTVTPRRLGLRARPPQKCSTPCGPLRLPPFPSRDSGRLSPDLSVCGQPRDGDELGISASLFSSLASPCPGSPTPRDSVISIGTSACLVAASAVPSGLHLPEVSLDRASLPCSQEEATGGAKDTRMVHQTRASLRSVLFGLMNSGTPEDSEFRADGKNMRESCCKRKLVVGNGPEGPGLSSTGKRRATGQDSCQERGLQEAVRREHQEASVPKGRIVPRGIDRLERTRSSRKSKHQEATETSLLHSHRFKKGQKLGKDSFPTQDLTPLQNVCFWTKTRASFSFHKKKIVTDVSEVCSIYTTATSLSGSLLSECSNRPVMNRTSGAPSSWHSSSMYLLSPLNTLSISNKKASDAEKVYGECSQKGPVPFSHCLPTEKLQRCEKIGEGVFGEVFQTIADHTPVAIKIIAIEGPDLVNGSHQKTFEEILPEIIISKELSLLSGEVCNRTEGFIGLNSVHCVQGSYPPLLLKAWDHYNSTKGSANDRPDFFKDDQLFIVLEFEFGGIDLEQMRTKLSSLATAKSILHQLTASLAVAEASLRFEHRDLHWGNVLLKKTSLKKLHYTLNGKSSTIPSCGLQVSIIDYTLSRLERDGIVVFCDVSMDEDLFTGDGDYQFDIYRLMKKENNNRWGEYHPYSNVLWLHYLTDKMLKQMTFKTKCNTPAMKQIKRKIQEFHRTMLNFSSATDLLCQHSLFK
Sequence of TYK2 JH1 catalytic (human) (P29597 whole entry, looked up): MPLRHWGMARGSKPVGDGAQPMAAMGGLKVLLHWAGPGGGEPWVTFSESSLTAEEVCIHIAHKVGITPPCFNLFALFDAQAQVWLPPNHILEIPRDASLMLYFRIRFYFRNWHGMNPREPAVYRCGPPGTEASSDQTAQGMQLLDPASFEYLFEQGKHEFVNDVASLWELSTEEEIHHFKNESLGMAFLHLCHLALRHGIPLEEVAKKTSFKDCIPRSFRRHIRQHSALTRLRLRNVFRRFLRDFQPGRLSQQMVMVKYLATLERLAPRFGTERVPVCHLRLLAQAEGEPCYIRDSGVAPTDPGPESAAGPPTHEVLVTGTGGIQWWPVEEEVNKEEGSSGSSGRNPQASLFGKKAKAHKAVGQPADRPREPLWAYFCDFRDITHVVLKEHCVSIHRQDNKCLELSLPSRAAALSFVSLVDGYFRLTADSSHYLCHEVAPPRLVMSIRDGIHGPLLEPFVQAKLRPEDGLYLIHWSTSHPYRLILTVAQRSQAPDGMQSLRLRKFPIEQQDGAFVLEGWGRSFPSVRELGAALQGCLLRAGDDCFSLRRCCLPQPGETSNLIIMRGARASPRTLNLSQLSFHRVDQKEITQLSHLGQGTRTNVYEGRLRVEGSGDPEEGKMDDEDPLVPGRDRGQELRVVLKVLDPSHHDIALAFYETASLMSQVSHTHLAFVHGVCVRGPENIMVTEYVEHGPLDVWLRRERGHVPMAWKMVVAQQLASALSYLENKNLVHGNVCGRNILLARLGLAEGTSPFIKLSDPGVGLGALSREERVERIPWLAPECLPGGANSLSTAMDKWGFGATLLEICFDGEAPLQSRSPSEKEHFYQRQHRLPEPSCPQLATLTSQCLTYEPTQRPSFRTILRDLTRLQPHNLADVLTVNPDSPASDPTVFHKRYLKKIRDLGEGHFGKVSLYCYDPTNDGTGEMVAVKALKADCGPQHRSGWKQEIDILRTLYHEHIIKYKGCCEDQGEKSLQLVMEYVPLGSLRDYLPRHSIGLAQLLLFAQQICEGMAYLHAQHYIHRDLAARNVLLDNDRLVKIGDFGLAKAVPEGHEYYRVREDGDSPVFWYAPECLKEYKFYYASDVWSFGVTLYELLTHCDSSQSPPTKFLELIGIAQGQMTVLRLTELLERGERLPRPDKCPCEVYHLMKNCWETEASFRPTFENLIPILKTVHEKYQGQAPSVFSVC
Sequence of PKN3 (M.tuberculosis) (Q6P5Z2 whole entry, looked up): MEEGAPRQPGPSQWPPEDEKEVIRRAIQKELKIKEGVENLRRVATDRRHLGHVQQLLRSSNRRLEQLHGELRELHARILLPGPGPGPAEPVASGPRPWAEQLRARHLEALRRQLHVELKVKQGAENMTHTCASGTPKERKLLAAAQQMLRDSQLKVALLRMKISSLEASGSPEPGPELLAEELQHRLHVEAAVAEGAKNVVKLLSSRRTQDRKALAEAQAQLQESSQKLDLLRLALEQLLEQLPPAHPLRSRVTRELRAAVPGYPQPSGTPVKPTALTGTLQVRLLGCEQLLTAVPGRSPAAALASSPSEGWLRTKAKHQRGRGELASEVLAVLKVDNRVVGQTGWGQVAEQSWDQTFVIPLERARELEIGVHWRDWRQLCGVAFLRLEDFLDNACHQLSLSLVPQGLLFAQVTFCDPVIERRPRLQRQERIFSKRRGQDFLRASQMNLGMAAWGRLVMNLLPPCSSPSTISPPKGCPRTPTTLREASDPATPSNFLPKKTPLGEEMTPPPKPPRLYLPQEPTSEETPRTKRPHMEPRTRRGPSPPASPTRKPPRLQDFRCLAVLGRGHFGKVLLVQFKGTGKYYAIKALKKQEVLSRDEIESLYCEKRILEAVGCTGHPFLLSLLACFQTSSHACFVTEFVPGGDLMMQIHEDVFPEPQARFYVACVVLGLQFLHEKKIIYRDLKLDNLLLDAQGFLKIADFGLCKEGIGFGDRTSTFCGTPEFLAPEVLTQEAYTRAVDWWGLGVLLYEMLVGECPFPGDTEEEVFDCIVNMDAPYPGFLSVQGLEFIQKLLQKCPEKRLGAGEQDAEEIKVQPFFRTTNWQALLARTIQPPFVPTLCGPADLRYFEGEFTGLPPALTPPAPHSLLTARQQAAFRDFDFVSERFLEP
Sequence of RPS6KA3 KD2 (human) (P51812 whole entry, looked up): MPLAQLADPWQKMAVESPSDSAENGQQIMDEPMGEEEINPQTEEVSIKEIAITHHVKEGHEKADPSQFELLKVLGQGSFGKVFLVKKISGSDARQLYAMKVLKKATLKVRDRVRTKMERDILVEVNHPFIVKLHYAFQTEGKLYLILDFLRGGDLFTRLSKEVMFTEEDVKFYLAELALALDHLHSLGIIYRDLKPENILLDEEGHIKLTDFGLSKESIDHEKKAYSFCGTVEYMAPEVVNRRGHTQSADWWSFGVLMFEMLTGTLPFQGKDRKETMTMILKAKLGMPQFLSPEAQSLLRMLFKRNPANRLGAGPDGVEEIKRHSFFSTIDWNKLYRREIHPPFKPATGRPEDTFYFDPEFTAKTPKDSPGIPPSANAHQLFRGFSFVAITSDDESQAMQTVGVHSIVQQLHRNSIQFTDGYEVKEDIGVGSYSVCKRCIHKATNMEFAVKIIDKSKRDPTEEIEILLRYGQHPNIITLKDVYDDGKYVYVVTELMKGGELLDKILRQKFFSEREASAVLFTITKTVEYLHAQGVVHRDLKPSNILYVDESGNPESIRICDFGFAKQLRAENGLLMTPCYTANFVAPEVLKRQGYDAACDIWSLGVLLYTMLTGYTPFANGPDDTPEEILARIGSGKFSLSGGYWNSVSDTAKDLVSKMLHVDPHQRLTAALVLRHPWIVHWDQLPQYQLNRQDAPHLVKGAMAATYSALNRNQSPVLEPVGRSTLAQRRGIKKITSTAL
Sequence of TSSK1B (human) (Q9BXA7 whole entry, looked up): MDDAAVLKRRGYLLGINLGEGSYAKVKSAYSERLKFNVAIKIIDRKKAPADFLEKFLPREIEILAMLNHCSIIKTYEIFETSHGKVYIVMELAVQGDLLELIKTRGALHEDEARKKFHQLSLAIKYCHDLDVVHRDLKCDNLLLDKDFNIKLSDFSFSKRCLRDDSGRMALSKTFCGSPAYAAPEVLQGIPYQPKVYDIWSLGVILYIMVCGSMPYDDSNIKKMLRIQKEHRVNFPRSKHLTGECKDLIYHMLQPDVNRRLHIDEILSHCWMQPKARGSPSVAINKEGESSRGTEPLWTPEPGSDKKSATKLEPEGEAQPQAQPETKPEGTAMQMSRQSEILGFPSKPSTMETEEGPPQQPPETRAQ

SMILES	kinase still bound, per cent of control (MAK (human))	kinase still bound, per cent of control (STK17A (human))	kinase still bound, per cent of control (CSNK1A1 (human))	kinase still bound, per cent of control (PRKCQ (human))	kinase still bound, per cent of control (CAMK1D (human))	kinase still bound, per cent of control (SRPK2 (human))	kinase still bound, per cent of control (GSG2 (human))	kinase still bound, per cent of control (CDK16 (human))	kinase still bound, per cent of control [1]	kinase still bound, per cent of control (LRRK2 (human))	kinase still bound, per cent of control (MAP2K2 (human))	kinase still bound, per cent of control (MAP3K11 (human))	kinase still bound, per cent of control (BRAF (human))	kinase still bound, per cent of control (MYO3A (human))	kinase still bound, per cent of control (CDK2 (human))	kinase still bound, per cent of control (SGK110 (human))	kinase still bound, per cent of control (PRKCI (human))	kinase still bound, per cent of control (VRK2 (human))	kinase still bound, per cent of control (CDC42BPA (human))	kinase still bound, per cent of control (FES (human))	further results
CNC(=O)Nc1ccc(-c2nc(N3CC4CCC(C3)O4)c3cnn(C4CCC5(CC4)OCCO5)c3n2)cc1	100%	100%	100%	100%	95%	90%	100%	100%	100%	82%	100%	100%	100%	52%	92%	96%	67%	100%	100%	100%	kinase still bound, per cent of control [2]: 82%; kinase still bound, per cent of control (DAPK1 (human)): 12%; kinase still bound, per cent of control [3]: 83%; kinase still bound, per cent of control (CSNK2A1 (human)): 80%; kinase still bound, per cent of control (RPS6KA5 KD2 (human)): 90%; kinase still bound, per cent of control (GRK1 (human)): 100%; kinase still bound, per cent of control (MAP4K2 (human)): 100%; kinase still bound, per cent of control (PKN3 (M.tuberculosis)): 94%; kinase still bound, per cent of control (EPHA8 (human)): 81%; kinase still bound, per cent of control (NEK6 (human)): 90%; kinase still bound, per cent of control (CAMK2G (human)): 100%; kinase still bound, per cent of control (WNK3 (human)): 100%; kinase still bound, per cent of control (MAP3K13 (human)): 82%; kinase still bound, per cent of control (RPS6KA3 KD2 (human)): 100%; kinase still bound, per cent of control (EIF2AK2 (human)): 100%; kinase still bound, per cent of control (TSSK1B (human)): 100%; kinase still bound, per cent of control [4]: 87%; kinase still bound, per cent of control (CSK (human)): 100%; kinase still bound, per cent of control (LATS2 (human)): 76%
COc1cc2ncnc(Nc3cccc(Cl)c3)c2cc1OC	100%	19%	35%	100%	83%	62%	100%	90%	52%	79%	25%	100%	64%	83%	100%	65%	80%	35%	77%	96%	kinase still bound, per cent of control [2]: 84%; kinase still bound, per cent of control (DAPK1 (human)): 53%; kinase still bound, per cent of control [3]: 38%; kinase still bound, per cent of control (CSNK2A1 (human)): 19%; kinase still bound, per cent of control (RPS6KA5 KD2 (human)): 67%; kinase still bound, per cent of control (GRK1 (human)): 100%; kinase still bound, per cent of control (MAP4K2 (human)): 36%; kinase still bound, per cent of control (PKN3 (M.tuberculosis)): 100%; kinase still bound, per cent of control (EPHA8 (human)): 38%; kinase still bound, per cent of control (NEK6 (human)): 100%; kinase still bound, per cent of control (CAMK2G (human)): 77%; kinase still bound, per cent of control (WNK3 (human)): 78%; kinase still bound, per cent of control (MAP3K13 (human)): 100%; kinase still bound, per cent of control (RPS6KA3 KD2 (human)): 71%; kinase still bound, per cent of control (EIF2AK2 (human)): 52%; kinase still bound, per cent of control (TSSK1B (human)): 100%; kinase still bound, per cent of control [4]: 94%; kinase still bound, per cent of control (CSK (human)): 62%; kinase still bound, per cent of control (LATS2 (human)): 40%

— the kinase profiling compilation of Christmann-Franck et al. (2016)
